Assay results reported in patent publication US20130065885A1, “ORAL THERAPEUTIC COMPOUND DELIVERY SYSTEM” (IMAGINOT PTY LTD., priority 2004, published 2013).
Where a name gives a salt, the structure may show the parent alone. Read-outs that look alike come from different tables or passages of the source.

How the values were obtained:
[1] = cited from earlier work
physchem = details: water

CN1CCC[C@@H]1Cc1c[nH]c2ccc(CCS(=O)(=O)c3ccccc3)cc12 [Eletriptan hydrobromide]
Volume of water to dissolve dose (dose as in the Dose (mg) column): 4 mL

COc1cccc(C2(O)CCCCC2CN(C)C)c1 (stereo not drawn) [tramadol hydrochloride]
solubility in water [1]: around 30 mg/mL | solubility (physchem): 30 mg/mL | Volume of water to dissolve dose: 1.3 mL | volume needed for total dissolution of the dose: around 1 mL

CC(=O)Nc1ccc(O)cc1 [paracetamol]
volume needed for total dissolution of the dose (weight for weight basis, dose in the paracetamol/tramadol hydrochloride tablet): around 27 mL
